Data: patent US20250082633A1, “COMPOUNDS AND METHODS FOR MODULATING SPLICING” (REMIX THERAPEUTICS INC., priority 2021, published 2025)
pIC50: −log10 of the molar value. Where two headings read alike, the source gives them in different places.

Assays:
HTT mRNA = assay: RT-qPCR splicing assay, HTT canonical (CJ) and alternative (AJ) junction mRNA; assay type: cell-based; settings: Homo sapiens; for pIC50: read-out: HTT CJ IC50; for AC50: read-out: HTT AJ AC50
In short: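 Splice-junction mRNAs (CJ, AJ) measured by TaqMan one-step RT-qPCR on cell lysates, using PPIA as reference for adherent A673 and GAPDH or GUSB for K562. Cells exposed for 24 h to 11 threefold concentrations up to 10 uM final, with DMSO at or below 0.25%.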

[1] = tested on: HiBiT-tagged HTT protein in K562 cells; assay: HiBit protein abundance assay, HTT; assay type: cell-based, human; settings: K562 HiBiT-modified cells, 24 hours, luminescence
In short: (§1)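 K562 lines with endogenously HiBiT-tagged target, 10000 cells/well in IMDM + 1% FBS, treated 24 h at 37 °C with 10-point 3-fold dilutions (top 10 μM final, DMSO ≤0.25%). Abundance read by Nano-Glo HiBiT lytic luminescence; IC50 is concentration giving 50% of untreated level, four-parameter fit.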

[2] = tested on: HiBiT-tagged MYB protein in K562 cells; assay: HiBit protein abundance assay, MYB; assay type: cell-based, human; settings: K562 HiBiT-modified cells, 24 hours, luminescence
In short: as §1

[3] = decrease in CJ mRNA levels, larger panel of genes, Table 3
[4] = decrease in canonical junction mRNA, A673 or K562 cells, 24 hours treatment, Table 2
[5] = increase in alternative junction mRNA, A673 or K562 cells, 24 hours treatment, Table 2

Row | Compound | pIC50 (HTT mRNA; [3]) | pIC50 (HTT mRNA; [4]) | AC50 (HTT mRNA; [5]) | pIC50 [1] | pIC50 [2] | AC50 (HTT mRNA; 24 h) | pIC50 (HTT mRNA; 24 h) | pIC50 (HTT mRNA)
1 | Cc1nc2c(C)cc(-c3cc(F)c4nn(C5CCNCC5)cc4c3)cc2o1 [Compound 137, 6-[7-fluoro-2-(4-piperidyl)indazol-5-yl]-2,4-dimethyl-1,3-benzoxazole] | > 7.00 | > 7.00 | < 100 nM | > 7.00 | 6.00 to 7.00 |  |  | 
2 | Cc1cn2nc(-c3cc(F)c4nn(C5CCN(CCO)CC5)cc4c3)cc(C)c2n1 [Compound 160, 2-[4-[5-(2,8-dimethylimidazo[1,2-b]pyridazin-6-yl)-7-fluoro-indazol-2-yl]-1-piperidyl]ethanol] |  |  |  | > 7.00 | 6.00 to 7.00 | < 100 nM | > 7.00 | > 7.00
3 | Cc1cn2nc(-c3cc(O)c4nn(C5CCNCC5)cc4c3)cc(C)c2n1 [Compound 156, 5-(2,8-dimethylimidazo[1,2-b]pyridazin-6-yl)-2-(piperidin-4-yl)-2H-indazol-7-ol] | 6.00 to 7.00 | 6.00 to 7.00 | 100 to 1000 nM | 6.00 to 7.00 | 5.00 to 6.00 |  |  | 
